Measurements published in patent publication US20010051602A1, “Methods for increasing ApoE levels for the treatment of neurodegenerative disease” (priority 1997, published 2001).

Columns and labels:
ApoE [1] = assay: astrocyte screening assay: secreted ApoE in rat type 1 astrocyte cultures; type: cell-based; details: for levels of extracellular (secreted) ApoE: astrocyte screening assay
Excerpt: Other culture systems which may be used include human culture systems of primary cells derived from human tissue or immortalized cell lines of nerve tissue origin such as the human astrocyte cell line, AsCH-7 (Bobryshev et al., 1995). In addition, novel cell lines from patients with various apoE genotypes may be used, as well as cell lines from patients suffering or predisposed to suffer from any of the neurodegenerative diseases described herein. Adult spinal cord from post-mortem patients with any of the above diseases may be used as a source for deriving cell lines of nerve tissue origin. One method of immortalizing cells from these patients is to infect primary tissue with a replication-deficient retrovirus containing DNA sequences encoding the SV40 large T antigen (Whittemore et al., 1994). Another method is to derive immortal human-human hybrid cell lines that express phenotypic characteristics of primary oligodendrocytes or astrocytes by fuising a 6-thioguanine-resistant mutant of the human rhabdomyosarcoma RD cell line with adult human nerve tissue by a lectin-enhanced polyethylene glycol procedure (McLaurin et al., 1995). Other methods for immortalizing cells derived from primary human nerve tissue could include the use of chemical carcinogens or radiation. […] Antibodies to ApoE allow for the design of a high throughput assay using an immunoassay detection method.
(§1) To verify this working hypothesis, we have examined the effect of various concentration of tacrine on ApoE synthesis and secretion in brain cells in culture. FIG. 5 illustrates the effect of tacrine on ApoE secretion in rat type 1 astrocyte cultures exposed (for 8 hours) to physiological and pharmacological concentrations of the drug. […] Experimental methods used to monitor ApoE levels are described in Bertrand et al., Mol. Brain Res. 33:174-178 (1995).

ApoE [2] = details: AD subjects treated with tacrine for several months, N = 4; untreated Alzheimer 0.36
Procedure: as §1

Alzheimer's disease = details: Alzheimer's patients treated for very long periods; cited from earlier work

Structure (SMILES)	levels of extracellular (secreted) ApoE (ApoE [1])	ApoE secretion in astrocytes (ApoE [1]; rat type 1 astrocyte cultures exposed for 8 hours, 2 uM, concentration typically found in CSF of treated AD patients)	ApoE Concentration In the Cerebrospinal Fluid (CSF), Mean (ApoE [2])	delay of institutionalization (Alzheimer's disease)
COc1cc2c(cc1OC)C(=O)C(CC1CCN(Cc3ccccc3)CC1)C2 (stereo not drawn) [donepezil]	no effect	–	–	–
CCCCCCCNC(=O)Oc1ccc2c(c1)[C@]1(C)CCN(C)[C@@H]1N2C [heptylphysostigmine]	increase	–	–	–
Nc1c2c(nc3ccccc13)CCCC2 [tacrine]	increase	increases	0.41 mg/dL	more than 1.5 years
